Molecular target: T1, human TRPV1 (Homo sapiens, UniProt Q8NER1)
T1 construct: expressed in transfected cells; host or cells: CHO-K1 cells, pCAGGS vector, clones selected by limiting dilution
Experiment: Capsaicin-induced Ca influx in transformed CHO cells, FDSS-6000 (b-1), A2 value
Format: cell-based
Conditions: concentration shifting the capsaicin concentration-reaction curve two times rightward; CHO cells expressing TRPV1
From the text: (1) Measurement of Capsaicin-Induced Ca Influx in a Transformed CHO Cell Line Expressing Human TRPV1
(a) Establishment of a Transformed CHO Cell Line Expressing Human and Rat TRPV1
Human and rat vanilloid receptor 1 (hTRPV1 and rTRPV1) cDNA was cloned from human brain and rat dorsal root ganglion, respectively. The cloned TRPV1 cDNA was incorporated in a pCAGGS vector. The vector was introduced to a CHO-K1 cell line, thus performing transformation. Clones obtained by limiting dilution were stimulated with capsaicin. Clones with a high responsiveness were selected using an increase in the Ca concentration as an indicator. The selected clones were used for the following experiment.
(b-1) Measurement of Ca Influx using FDSS-6000
The transformed CHO cells expressing human or rat TRPV1 were seeded in a 96-well plate (with black walls and transparent bottoms, manufactured by Greiner) at a density of 40,000 cells per well. The cells were cultured at 37° C. in 5% CO2 atmosphere for one night. A loading solution of FLIPR Calcium 3 assay kit (manufactured by Molecular Devices Corporation) containing 2.5 mmol/L of probenecid was then added to each of the wells in the same amount as the culture medium, and the cells were cultured at 37° C. for 60 minutes. For three minutes after the cells were stimulated with capsaicin (1 nmol/L to 1 μmol/L), the change of the intracellular Ca concentration was measured using FDSS-6000 (λex: 480 nm, λem: […], manufactured by Hamamatsu Photonics K.K.). The integrated values of the increase rate of the intracellular Ca concentration were calculated for a group treated with the compounds of the present invention and a group treated with a vehicle, thus allowing capsaicin concentration-reaction curves to be obtained. A concentration (A2 value) of each of the compounds of the present invention, at which the capsaicin concentration-reaction curve obtained when the cells were treated with the vehicle was shifted two times rightward, was calculated. The inhibitory effects of the test compounds were compared using this value as an indicator.

T1 sequence (Q8NER1 whole entry): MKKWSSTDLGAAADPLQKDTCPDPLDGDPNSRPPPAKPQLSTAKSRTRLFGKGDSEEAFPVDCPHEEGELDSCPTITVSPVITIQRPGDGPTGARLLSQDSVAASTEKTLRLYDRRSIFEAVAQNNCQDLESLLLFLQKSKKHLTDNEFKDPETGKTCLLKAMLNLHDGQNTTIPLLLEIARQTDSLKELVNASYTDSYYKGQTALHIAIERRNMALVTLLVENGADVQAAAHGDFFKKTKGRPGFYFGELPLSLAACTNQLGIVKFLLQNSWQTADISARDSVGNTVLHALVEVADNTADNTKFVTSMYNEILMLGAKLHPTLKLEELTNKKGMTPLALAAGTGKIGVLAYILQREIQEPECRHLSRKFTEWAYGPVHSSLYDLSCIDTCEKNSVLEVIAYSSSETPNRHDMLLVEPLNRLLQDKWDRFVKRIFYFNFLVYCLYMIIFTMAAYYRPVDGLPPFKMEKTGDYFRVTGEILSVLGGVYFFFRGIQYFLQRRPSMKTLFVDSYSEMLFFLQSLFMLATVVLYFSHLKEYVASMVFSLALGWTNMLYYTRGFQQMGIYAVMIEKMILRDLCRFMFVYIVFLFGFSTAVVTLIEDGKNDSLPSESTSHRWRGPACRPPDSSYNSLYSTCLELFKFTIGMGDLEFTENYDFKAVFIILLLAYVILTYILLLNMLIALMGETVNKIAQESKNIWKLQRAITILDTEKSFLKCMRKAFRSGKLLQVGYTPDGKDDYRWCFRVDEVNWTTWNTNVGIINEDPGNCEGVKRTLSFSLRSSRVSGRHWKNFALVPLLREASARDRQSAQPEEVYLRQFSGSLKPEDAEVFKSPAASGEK

| A2 value | SMILES |
| --- | --- |
| A (A2 value of less than 100 nM) | O=C(/C=C1\CCCOc2cc(C(F)(F)F)ccc21)Nc1cccc2c1CCC(=O)N2 [compound 18, (E)-2-(8-trifluoromethyl-3,4-dihydrobenzo[b]oxepin-5(2H)-ylidene)-N-(3,4-dihydro-2(1H)-quinolinon-5-yl)acetamide] |
| A (A2 value of less than 100 nM) | O=C(/C=C1\CCCOc2cc(C(F)(F)F)ccc21)Nc1ccc2c(c1)NC(=O)C(CCO)O2 (centres unmarked) [Example 3, (E)-2-(8-trifluoromethyl-3,4-dihydrobenzo[b]oxepin-5(2H)-ylidene)-N-(2-(2-hydroxyethyl)-4H-benzo[1,4]oxazin-3-on-6-yl)acetamide] |
| B (A2 value of 100 nM or more) | O=C(/C=C1\CCCOc2cc(C(F)(F)F)ccc21)Nc1ccc2c(c1)NC(=O)C(N1CCNCC1)C2 (centres unmarked) [EXAMPLE 52, (E)-2-(8-trifluoromethyl-3,4-dihydrobenzo[b]oxepin-5(2H)-ylidene)-N-(3-(1-piperazinyl)-3,4-dihydro-2(1H)-quinolinon-7-yl)acetamide] |
| A (A2 value of less than 100 nM) | COCCN(C)C1Cc2ccc(NC(=O)/C=C3\CCCOc4cc(C(F)(F)F)ccc43)cc2NC1=O (centres unmarked) [EXAMPLE 45, (E)-2-(8-trifluoromethyl-3,4-dihydrobenzo[b]oxepin-5-(2H)-ylidene)-N-(3-(N-methyl-N-(2-methoxyethyl)amino)-3,4-dihydro-2(1H)-quinolinon-7-yl)acetamide] |
| A (A2 value of less than 100 nM) | O=C(/C=C1\CCCOc2cc(C(F)(F)F)ccc21)Nc1ccc2c(c1)NC(=O)C(N1CCCC1)C2 (centres unmarked) [EXAMPLE 46] |
| A (A2 value of less than 100 nM) | COC1CCN(C2Cc3ccc(NC(=O)/C=C4\CCCOc5cc(C(F)(F)F)ccc54)cc3NC2=O)CC1 (centres unmarked) [EXAMPLE 55, (E)-2-(8-trifluoromethyl-3,4-dihydrobenzo[b]oxepin-5(2H)-ylidene)-N-(3-(4-methoxy-1-piperidinyl)-3,4-dihydro-2(1H)-quinolinon-7-yl)acetamide] |
| A (A2 value of less than 100 nM) | CO[C@@H]1CCN(C2Cc3ccc(NC(=O)/C=C4\CCCOc5cc(C(F)(F)F)ccc54)cc3NC2=O)C1 (stereo partly drawn) [EXAMPLE 56, (E)-2-(8-trifluoromethyl-3,4-dihydrobenzo[b]oxepin-5(2H)-ylidene)-N-(3-((3S)-methoxypyrrolidin-1-yl)-3,4-dihydro-2(1H)-quinolinon-7-yl)acetamide] |
| A (A2 value of less than 100 nM) | CC1Oc2ccc(NC(=O)/C=C3\CCCOc4cc(C(F)(F)F)ccc43)cc2NC1=O (centres unmarked) [Example 2, (E)-2-(8-trifluoromethyl-3,4-dihydrobenzo[b]oxepin-5(2H)-ylidene)-N-(2-methyl-4H-benzo[1,4]oxazin-3-on-6-yl)acetamide] |
| B (A2 value of 100 nM or more) | CN(C1CCOCC1)C1Cc2ccc(NC(=O)/C=C3\CCCOc4cc(C(F)(F)F)ccc43)cc2NC1=O (centres unmarked) [EXAMPLE 57, (E)-2-(8-trifluoromethyl-3,4-dihydrobenzo[b]oxepin-5(2H)-ylidene)-N-(3-(N-methyl-N-(4-tetrahydropyranyl)amino)-3,4-dihydro-2(1H)-quinolinon-7-yl)acetamide] |
| A (A2 value of less than 100 nM) | O=C(/C=C1\CCCOc2cc(C(F)(F)F)ccc21)Nc1ccc2c(c1)NC(=O)C(N1CC[C@@H](F)C1)C2 (stereo partly drawn) [EXAMPLE 47, (E)-2-(8-trifluoromethyl-3,4-dihydrobenzo[b]oxepin-5(2H)-ylidene)-N-(3-((3S)-fluoropyrrolidin-1-yl)-3,4-dihydro-2(1H)-quinolinon-7-yl)acetamide] |

The remaining lines, values behind:

| SMILES | A2 value |
| --- | --- |
| CN1c2ccc(NC(=O)/C=C3\CCCOc4cc(C(F)(F)F)ccc43)cc2NC(=O)C1(C)C [EXAMPLE 11, (E)-2-(8-trifluoromethyl-3,4-dihydrobenzo[b]oxepin-5(2H)-ylidene)-N-(3,3-dimethyl-4-methyl-3,4-dihydro-2(1H)-quinoxalinon-7-yl)acetamide] | A (A2 value of less than 100 nM) |
| CC1(C)C/C(=C\C(=O)Nc2ccc3c(c2)NC(=O)CC3)c2ccc(C(F)(F)F)cc2O1 [EXAMPLE 24, (E)-2-(7-trifluoromethyl-2,2-dimethylchroman-4-ylidene)-N-(3,4-dihydroquinolin-2(1H)-on-7-yl)acetamide] | A (A2 value of less than 100 nM) |
| O=C(/C=C1\CCCOc2cc(C(F)(F)F)ccc21)Nc1ccc2c(c1)NC(=O)C(CO)N2 (centres unmarked) [EXAMPLE 9, (E)-2-(8-trifluoromethyl-3,4-dihydrobenzo[b]oxepin-5(2H)-ylidene)-N-(3-hydroxymethyl-3,4-dihydro-2(1H)-quinoxalinon-7-yl)acetamide] | A (A2 value of less than 100 nM) |
| O=C(/C=C1\CCCOc2cc(C(F)(F)F)ccc21)Nc1ccc2c(c1)NC(=O)C(N1CCOCC1)C2 (centres unmarked) [EXAMPLE 34, (E)-2-(8-trifluoromethyl-3,4-dihydrobenzo[b]oxepin-5(2H)-ylidene)-N-(3-(4-morpholinyl)-3,4-dihydro-2(1H)-quinolinon-7-yl)acetamide] | A (A2 value of less than 100 nM) |
| O=C(/C=C1\CCCOc2cc(C(F)(F)F)ccc21)Nc1ccc2c(c1)NC(=O)C(CO)C2 (centres unmarked) [EXAMPLE 28, (E)-2-(8-trifluoromethyl-3,4-dihydrobenzo[b]oxepin-5(2H)-ylidene)-N-(3-hydroxymethyl-3,4-dihydro-2(1H)-quinolinon-7-yl)acetamide] | A (A2 value of less than 100 nM) |
| O=C(/C=C1\CCCOc2cc(C(F)(F)F)ccc21)Nc1cccc2c1CCC(=O)N2CCO [EXAMPLE 19, (E)-2-(8-trifluoromethyl-3,4-dihydrobenzo[b]oxepin-5(2H)-ylidene)-N-(1-(2-hydroxyethyl)-3,4-dihydro-2(1H)-quinolinon-5-yl)acetamide] | A (A2 value of less than 100 nM) |
| CN1C(=O)N(Cc2ccccc2)Cc2ccc(NC(=O)/C=C3\CCCOc4cc(C(F)(F)F)ccc43)cc21 [EXAMPLE 39, (E)-2-(8-trifluoromethyl-3,4-dihydrobenzo[b]oxepin-5(2H)-ylidene)-N-(3-benzyl-1-methyl-3,4-dihydro-2(1H)-quinazolinon-7-yl)acetamide] | A (A2 value of less than 100 nM) |
| O=C(/C=C1\CCCOc2cc(C(F)(F)F)ccc21)Nc1ccc(OCCCO)c2c1CCC(=O)N2 [EXAMPLE 37, (E)-2-(8-trifluoromethyl-3,4-dihydrobenzo[b]oxepin-5(2H)-ylidene)-N-(8-(3-hydroxypropoxy)-3,4-dihydro-2(1H)-quinolinon-5-yl)acetamide] | A (A2 value of less than 100 nM) |
| CN1CC(=O)Nc2cc(NC(=O)/C=C3\CCCOc4cc(C(F)(F)F)ccc43)ccc21 [EXAMPLE 8, (E)-2-(8-trifluoromethyl-3,4-dihydrobenzo[b]oxepin-5 (2H)-ylidene)-N-(4-methyl-3,4-dihydro-2(1H)-quinoxalinon-7-yl)acetamide] | A (A2 value of less than 100 nM) |
| O=C(/C=C1\CCCOc2cc(C(F)(F)F)ccc21)Nc1cccc2c1NCC(=O)N2 [EXAMPLE 21, (E)-2-(8-trifluoromethyl-3,4-dihydrobenzo[b]oxepin-5(2H)-ylidene)-N-(3,4-dihydro-2 (1H)-quinoxalinon-5-yl)acetamide] | A (A2 value of less than 100 nM) |
| CN1c2ccc(NC(=O)/C=C3\CCCOc4cc(C(F)(F)F)ccc43)cc2NC(=O)C1(C)CO (centres unmarked) [EXAMPLE 41, (E)-2-(8-trifluoromethyl-3,4-dihydrobenzo[b]oxepin-5(2H)-ylidene)-N-(3-hydroxymethyl-3,4-dimethyl-3,4-dihydro-2(1H)-quinoxalinon-7-yl)acetamide] | A (A2 value of less than 100 nM) |

Test system: not listed separately
Experiment: Effects on rectal temperature (8-1), oral administration to rats
Format: in vivo, rat
Conditions: oral single doses of 3, 10 and 30 mg/kg; 30, 60 and 120 minutes; maximum absolute difference vs vehicle
Procedure: (8-1) Effects on Rectal Temperature
A test compound was orally administered to rats at single doses of 3, 10 and 30 mg/kg. Then rectal temperature was measured 30, 60 and 120 minutes after administration.
Differences of the mean value between a group treated with test substance and a vehicle-treated group were calculated at all measuring points and, based on the maximum absolute value of differences, changes in rectal temperature were divided into the following three categories:
−: the maximum value was less than 0.5 degree Celsius +: the maximum value was more than 0.5 degree but less than 1.0 degree Celsius ++: the maximum value was more than 1.0 degree Celsius

| SMILES | Change in rectal temperature in rats |
| --- | --- |
| O=C(/C=C1\CCCOc2cc(C(F)(F)F)ccc21)Nc1ccc2cc(CO)c(=O)[nH]c2c1 [Example 93, (E)-2-(8-trifluoromethyl-3,4-dihydrobenzo[b]oxepin-5(2H)-ylidene)-N-(3-hydroxymethyl-2(1H)-quinolinon-7-yl)acetamide] | − (the maximum value was less than 0.5 degree Celsius) |
| O=C(/C=C1\CCCOc2cc(C(F)(F)F)ccc21)Nc1ccc2c(c1)NC(=O)C(N1CCOCC1)C2 (centres unmarked) [EXAMPLE 30, (E)-2-(8-trifluoromethyl-3,4-dihydrobenzo[b]oxepin-5(2H)-ylidene)-N-(3-(4-morpholinyl)-3,4-dihydro-2(1H)-quinolinon-7-yl)acetamide] | − (the maximum value was less than 0.5 degree Celsius) |
